Data taken from patent publication US8598118B2, “Hepatocyte growth factor mimics as therapeutic agents” (Washington State University, priority 2011, dated 2013).

How the values were obtained:
CA1 hippocampal neurons = experiment: Spinogenesis in organotypic hippocampal slice cultures; type: cell-based, rat; settings: HGF 10 ng/ml, 48 hours, organotypic slices
Protocol: (§1) Hippocampi from P4 Sprague Dawley rats were cultured as previously described (Wayman, Impey et al. 2006). Briefly, 400 μm slices were cultured on (Milipore, Billerica, Mass.) for 3 days after which they were biolistically transfected with tomato fluorescent protein (TFP) using a Helios Gen Gun (BioRad, Hercules, Calif.), according to the manufacturer's protocol, to visualize dendritic arbors. Following a 24 hour recovery period slices were stimulated with vehicle (H2O), 1 pM Nle1-AngIV or Dihexa for 2 days. Slices were fixed and mounted. Hippocampal CA1 neuronal processes were imaged and measured as described above.
as §1, with “Gene” for “Gen”, “with” for “with vehicle (H2O),”

c-Met receptor = experiment: c-Met phosphorylation in acute adult rat hippocampal slices; type: cell-based; settings: 30 minutes
Description: Adult Sprague-Dawley rats (250 g+) obtained from Harlan Laboratories (Ca, USA) were anesthetized with isofluorane (Vet One™, MWI, Meridian, Id., USA) and decapitated. The brain was rapidly removed and placed into ice-chilled artificial cerebrospinal fluid (aCSF) for approximately 30 s. Both hemispheres were separated by a mid-saggital cut and both hippocampi removed. Slices were sectioned cross- and length-wise (400 μm) to ensure penetrability of the drug, using a McIlwain tissue chopper (Brinkmann, Gomshall, UK) and transferred to a gassed (95% O2/5% CO2) incubation chamber containing aCSF for 90 minutes at room temperature. […]
Protein concentration of the samples was quantified using the BCA method (Pierce, Rockford, Ill.) following the manufacturers protocol. […]

hippocampal neurons = experiment: Immunocytochemistry: percent correlation of spines to synaptic markers (VGLUT1, Synapsin, PSD-95); type: cell-based, rat; settings: HGF 10 ng/ml, 5 days
Protocol: Transfected neurons were treated, fixed and stained. Briefly, cells were permeablized with 0.1% Triton X-100 detergent (Bio-Rad; Hercules, Calif.) for 10 minutes. An 8% bovine serum albumin (Intergen Company; Burlington, Mass.) in PBS was used to prevent non-specific binding for one hour at R.T.; Primary antibody incubations were at a 1:2500 dilution (see below) in 1% BSA in PBS at 4° C. overnight. Secondary antibody, 1:3000 Alexafluor 488 goat-anti-mouse (Invitrogen: Carlsbad, Calif.) was applied for two hours at room temperature. Coverslips were mounted with ProLong Gold anti-fade reagent (Invitrogen; Carlsbad, Calif.) and all washes were done with PBS. Imaging and analysis were performed as described above. […] In each instance the total number of spines was counted for the treatment groups, control, Nle1-AngIV and Dihexa, to ensure an active phenotype. The total number of actin enriched spines adjacent to VGLUT1 or Synapsin were counted and converted to a percentage as the percent correlation of treatment-induced spines to presynaptic markers is a strong indicator of ability to transmit excitatory signals.
Transfected neurons were treated, fixed and stained as previously described in Chapter two. […] In each instance the total number of spines was counted for the treatment groups, control, Nle1-AngIV and Dihexa, to ensure an active phenotype. […]

In the case of “HGF: carrier free adult recombinant Hepatocyte Growth Factor (R and D Systems)”, the “number of spines per 50 μm dendrite length, CA1 neurons” value (CA1 hippocampal neurons) is reported as 18.5, the “c-Met phosphorylation vs control (aCSF) slices” value (c-Met receptor; HGF 50 ng/ml (non-saturating)) is reported as “not statistically different from control treated slices” and the “c-Met phosphorylation vs control (aCSF) slices” value (c-Met receptor; HGF 100 ng/ml (saturating)) is reported as “increased c-Met phosphorylation”. For the same substance, the “percent correlation of spines to Synapsin” value (hippocampal neurons) was 98%.
